Experimental data from article PMC3842668, “Dual-acting stapled peptides target both HIV-1 entry and assembly” (Retrovirology, 2013).
Where a SMILES comes first, the peptide text is derived from it. Bridges are numbered along the chain shown (N, C = ends). Where no end group is shown, it is not given here. [ ]: non-standard residue; d: D form. R8 = C=CCCCCCC[C@@](C)(N)C(=O)O; S5 = C=CCCC[C@](C)(N)C(=O)O

What was measured:
V120Q/A327P mutant = assay: Virus replication in PBMC, Env mutant; type: cell-based, HIV-1; details: PBMC from three donors, 30 μM peptide, RT activity
HIV-1 pNL4-3 (WT) = type: cell-based
WT NL4-3 [1] = assay: Virus replication in PBMC, WT; type: cell-based, HIV-1; details: PBMC from three donors, 30 μM peptide, RT activity
WT HIV-1 (NL4-3) = type: cell-based
HIV-1 pNL4-3 = assay: Virus assembly and release assay, Gag processing; type: cell-based; details: 293T cells transfected with pNL4-3, peptide for 16–20 h, ratio of Pr55Gag to p24
Description: This inhibition was specific to HIV-1 as the release of another lentivirus, equine infectious anemia virus (EIAV), was not inhibited. In this study we investigated whether i,i + 7 stapled CAI-derived peptides have any effect on virus release. 293T cells were transfected with the full-length HIV-1 molecular clone pNL4-3, treated with stapled peptides for 16–20 h, and metabolically labeled with [^35S]Met/Cys. The cell- and virus-associated proteins were immunoprecipitated with HIV-Ig.
Figure 6 i + 7 stapled peptides have no effect on HIV-1 release, but impair Gag processing. […] Cells were metabolically labeled with [^35S]Met/Cys for 2 h. Cells were lysed and virions were collected by ultracentrifugation. Cell and virus lysates were immunoprecipitated with HIV-Ig and subjected to SDS-PAGE. Protein band intensities were quantified by phosphorimager analysis, and HIV-1 release was calculated as the amount of virion-associated p24 relative to total (cell- plus virion-associated) Gag. (b) Accumulation of unprocessed Gag in cells was measured by calculating the ratio of Pr55^Gag to p24 in cells. P values were calculated by Student’s t-test, with P < 0.05 considered significant. N = 3, ± SD.
293T cells, plated at 3 × 10^5 cells/well in 12 well plates, were transfected with the HIV-1 molecular clone pNL4-3 [69]. […] One day posttransfection, cells were metabolically labeled with [^35S]Met/Cys for 2 h. The labeled virions were pelleted in an ultracentrifuge, and the virus and cell lysates were immunoprecipitated with pooled sera from HIV-1-infected patients (HIV-Ig, obtained from the ARP) and subjected to SDS-PAGE. Protein band intensities were quantified by phosphorimager analysis, and virus release was calculated as the amount of virion-associated Gag as a fraction of total (cell- plus virion-associated) Gag synthesized during the metabolic labeling period. Accumulation of Pr55^Gag in cells was measured by calculating the ratio of Pr55^Gag to p24 (CA).

HIV-1 CA [2] = biological target: T1, HIV-1 CA (Human immunodeficiency virus type 1 group M subtype B, UniProt P12493); assay: In vitro CA assembly, negative-stain electron microscopy; type: biochemical; details: 50 μΜ CA, 0.25- to 3.0-fold molar equivalent of peptide
T1 construct: Wild-type HIV-1 CA was overexpressed and purified as previously described; made in house
Description: Briefly, stock proteins were adjusted to the appropriate concentration (25 μΜ for Gag protein or 50 μΜ for CA protein) with the Na2HPO4 buffer at pH 8.0. […] Negative staining was used to check the assembly. Carbon-coated copper grids (200 mesh size; EM Sciences) were treated with 20 μl of poly-L-lysine (1 mg/ml; Sigma) for 2 min. 20 μl of reaction solution was placed onto the grid for 2 min. Spotted grids were then stained with 30 μl of uranyl acetate solution for 2 min. Excess stain was removed, and grids were air-dried. Specimens were examined with a TECNAI G^2 electron microscope (FEI, OR, USA).

[3] = test system: N-terminal and C-terminal V3 loop peptides; assay: ITC binding to N-terminal and C-terminal V3 loop peptides; set-up: species or system HIV-1; details: overlapping 15-mer V3 peptides
Description: (§1) We also used ITC to measure the binding affinity of the stapled peptides to full-length cyclic V3 loop peptide.
(§2) Full-length V3 peptide (Cat# 1840), cyclic V3 peptide (Cat# 1837) and 15-mer overlapping V3 peptides (Cat# 1832, 6282, 6283, 6284, 6285, 6287, 6288, 6289, 6290 and 6291, for amino acid sequence see HIV-1 Subtype B (MN) Env Peptides - Complete Set Cat# 6451) were obtained through the NIH ARP.
(§3) For forward titration, 90 μM full-length V3 peptide, full-length cyclic V3 peptide or 90 μM 15-mer V3 peptides were titrated into 4.5 μM of stapled or linear peptides. Reference measurements were performed by titrating 90 μM full-length V3 peptide, full-length cyclic V3 peptide or 15-mer V3 peptide into buffer without peptide. For reverse titration, 90 μM stapled peptide was titrated into 4.5 μM full-length V3 peptide, full-length cyclic V3 peptide or […]. Reference measurements were performed by titrating 90 μM stapled peptide into buffer without peptide.

HIV-1 CA [4] = biological target: T1, HIV-1 CA; assay: Turbidity-based in vitro CA assembly assay; type: biochemical; details: turbidity at 350 nm
Description: The ability of stapled peptides to disrupt CA-CA interactions was also assessed using a turbidity-based in vitro CA assembly assay. This assay is based on the observation that the turbidity of a CA-containing solution increases in proportion to the extent of assembly.
Wild-type HIV-1 CA was overexpressed and purified as previously described. […] Turbidity assays were carried out in triplicate using a Beckman spectrophotometer at a wavelength of 350 nm to monitor HIV-1 in vitro assembly conducted at ambient temperatures. Protein samples were prepared in an assembly buffer [50 mM NaPO4 pH 8.0]. In vitro assembly reactions were prepared with 250 μl of assembly buffer containing 60 μM protein. To catalyze CA assembly 250 μl of an assembly buffer containing 5M NaCl was added. The solution was mixed by agitation and transferred a cuvette for a total delay of 20 seconds. Assembly was monitored every 10 sec for the first min and every min thereafter for a total 10 min. Assembly reactions with stapled peptides were incubated in the assembly buffer for 10 min and then centrifuged for 1 min to separate any insoluble fractions before catalyzing assembly.

[5] = biological target: tip of V3 loop (15-mer V3 tip peptide); assay: ITC binding to 15-mer V3 tip peptide; set-up: species or system HIV-1; details: 90 μM 15-mer V3 tip peptide titrated into 4.5 μM peptide, single-site model
Description: as §1, §2, §3

[6] = test system: HIV-1 V120Q/A327P Env mutant; type: cell-based
WT NL4-3 [7] = assay: Spreading virus replication in Jurkat T-cell line, RT activity, WT; type: cell-based, HIV-1
[8] = not told; cited from earlier work
From the text: In 2005, a 12-mer peptide (CAI), identified by phage-display, was reported to disrupt both immature- and mature-like particles in vitro by targeting the C-terminal domain (CTD) of HIV-1 CA [21]. […] Subsequently, we converted CAI to a cell-penetrating peptide (NYAD-1) by using a hydrocarbon stapling technique and confirmed its binding to the CTD [24]. NYAD-1, which is an i,i + 4 staple peptide, disrupts the formation of both immature- and mature-like particles in cell-free and cell-based assembly s ... || We previously reported that an i,i + 4 stapled peptide, NYAD-1, penetrates cells and disrupts virus assembly in both in vitro and cell-based assays. […] In addition, direct binding analyses by ITC and NMR confirmed that NYAD-1 binds to the CTD of CA. These findings motivated us to expand the scope of our drug discovery effort on hydrocarbon-stapled peptides as assembly and maturation inhibitors to an i,i + 7 series of stapled peptides. This approach allowed us to explore res ...

| Compound | Cell penetration (in words) (293T cells) | virus replication (in words) (V120Q/A327P mutant) | reduction in infectivity of virions produced from treated cells (HIV-1 pNL4-3 (WT)) | virus replication (in words) (WT NL4-3 [1]) | fold reduction of virus infectivity, WT (WT HIV-1 (NL4-3)) [fold] | Accumulation of cell-associated Pr55Gag (in words) (HIV-1 pNL4-3) | Effect on CA tube assembly, EM (in words) (HIV-1 CA [2]) | binding to N-terminal and C-terminal V3 loop peptides (in words) [3] | Effect on CA assembly, turbidity (in words) (HIV-1 CA [4]; 50 mM NaPO4 pH 8.0) | initial rate of CA assembly (HIV-1 CA [4]; compound:CA ratio 2:1, mean ± standard deviation from three experiments, DMSO control 216 ± 6.23) [mOD/min] | Kd [5] [µM] | CC 50 (μM ± SD) in MT-2 (MT-2 cells) [µM] | fold reduction of virus infectivity, V120Q/A327P double mutant [6] | virus replication (in words) (WT NL4-3 [7]; Jurkat cells transfected with pNL4-3 (WT), 37.5 μM peptide) | virus replication (in words) (WT NL4-3 [7]; Jurkat cells transfected with pNL4-3, 25 μM peptide) | virus replication (in words) (WT NL4-3 [7]; Jurkat cells transfected with pNL4-3, 50 μM peptide) | cell permeability (in words) [8] |
| --- | --- | --- | --- | --- | --- | --- | --- | --- | --- | --- | --- | --- | --- | --- | --- | --- | --- |
| CC[C@H](C)[C@H](NC(C)=O)C(=O)N[C@@H](CO)C(=O)N[C@@H](Cc1ccccc1)C(=O)N[C@]1(C)CCCCCCC=CCCC[C@@](C)(C(=O)N[C@@H](CCC(=O)O)C(=O)N[C@@H](CO)C(=O)NCC(=O)N[C@@H](CO)C(N)=O)NC(=O)[C@H](Cc2ccc(O)cc2)NC(=O)[C@H](Cc2ccc(O)cc2)NC(=O)[C@H](CC(=O)O)NC(=O)[C@H](CC(C)C)NC(=O)[C@H](CC(C)C)NC(=O)[C@H](CCC(=O)O)NC1=O [NYAD-36] (Ac-ISF[R8]ELLDYY[S5]ESGS-NH2; staple 4-11) | penetrate cells less efficiently than NYAD-1 | showed some antiviral activity against the V120Q/A327P mutant | four-fold | strongly inhibited replication of WT NL4-3 in PBMC | > 10 | modest accumulation of cell-associated Pr55^Gag | either severely damaged or disintegrated | neither N-terminal nor C-terminal V3 loop peptides bind | reduced the extent of CA assembly in a dose-dependent manner | 158 ± 24.71 | 15.1 ± 3.78 | >189.4 | ~ 2.5 fold | significantly delayed | virus replication peaked approximately six days posttransfection | no replication was detected | – |
| ITFEDLLDYYGP-NH2 [CAI, reference compound] | – | – | – | – | – | – | – | – | – | – | – | >100 | – | – | – | – | lack of cell permeability |
